# Test results as given in patent publication US4971965A, “Antibiotics TAN-1057” (Takeda Chemical Industries, Ltd., priority 1988, dated 1990).
# Counter-ions that a name gives are not always drawn. Like-named read-outs stand apart in the source and are kept apart here.
# What was measured:
# [1] = system: Acinetobacter calcoaceticus IFO 12552; type: cell-based; details: IFO12552, agar dilution, DY medium, pH unadjusted, approx. 10^6 CFU/ml, read-out: Minimum Inhibitory Conc. (MIC)
# Protocol: (§1) (Note 1) Measurement was conducted by employing a medium consisting of DY
# (§2) medium [Bacto Antibiotic Medium 3 (Difco Laboratories, USA)(17.5 g), Bact
# (§3) yeast extract(Difco Laboratories, USA)(5.0 g) and distilled water(pH
# (§4) unadjusted)(1000 ml)], using approximately 10^6 colony forming unit/m
# (§5) of inoculum, by means of the agar dilution method.
# Aeromonas caviae NCW = type: cell-based; details: agar dilution, DY medium, pH unadjusted, approx. 10^6 CFU/ml, read-out: Minimum Inhibitory Conc. (MIC)
# Protocol: as §1, §2, §3, §4, §5
# Bacillus cereus FDA 5 = type: cell-based; details: FDA5, agar dilution, DY medium, pH unadjusted, approx. 10^6 CFU/ml, read-out: Minimum Inhibitory Conc. (MIC)
# Protocol: as §1, §2, §3, §4, §5
# [2] = system: Bacillus megaterium IFO 12108; type: cell-based; details: Priestia megaterium, IFO12108; agar dilution; DY medium, pH unadjusted; approx. 10^6 CFU/ml; read-out: Minimum Inhibitory Conc. (MIC)
# Protocol: as §1, §2, §3, §4, §5
# [3] = system: Bacillus subtilis NIHJ PCI 219; type: cell-based; details: agar dilution, DY medium, pH unadjusted, approx. 10^6 CFU/ml, read-out: Minimum Inhibitory Conc. (MIC)
# Protocol: as §1, §2, §3, §4, §5
# Escherichia coli LD-2 = type: cell-based; details: LD2, agar dilution, DY medium, pH unadjusted, approx. 10^6 CFU/ml, read-out: Minimum Inhibitory Conc. (MIC)
# Protocol: as §1, §2, §3, §4, §5
# [4] = system: Escherichia coli NIHJ JC 2; type: cell-based; details: NIHJJC2, agar dilution, DY medium, pH unadjusted, approx. 10^6 CFU/ml, read-out: Minimum Inhibitory Conc. (MIC)
# Protocol: as §1, §2, §3, §4, §5
# [5] = system: Klebsiella pnemoniae IFO 3317; type: cell-based; details: IFO3317, agar dilution, DY medium, pH unadjusted, approx. 10^6 CFU/ml, read-out: Minimum Inhibitory Conc. (MIC)
# Protocol: as §1, §2, §3, §4, §5
# [6] = system: Micrococcus luteus IFO 12708; type: cell-based; details: IFO12708, agar dilution, DY medium, pH unadjusted, approx. 10^6 CFU/ml, read-out: Minimum Inhibitory Conc. (MIC)
# Protocol: as §1, §2, §3, §4, §5
# [7] = system: Proteus vulgaris IFO 3988; type: cell-based; details: IFO3988, agar dilution, DY medium, pH unadjusted, approx. 10^6 CFU/ml, read-out: Minimum Inhibitory Conc. (MIC)
# Protocol: as §1, §2, §3, §4, §5
# [8] = system: Pseudomonas aeruginosa IFO 3080; type: cell-based; details: IFO3080, agar dilution, DY medium, pH unadjusted, approx. 10^6 CFU/ml, read-out: Minimum Inhibitory Conc. (MIC)
# Protocol: as §1, §2, §3, §4, §5
# [9] = system: Salmonella typhimurium IFO 12529; type: cell-based; details: Salmonella enterica; agar dilution; DY medium, pH unadjusted; approx. 10^6 CFU/ml; read-out: Minimum Inhibitory Conc. (MIC)
# Protocol: as §1, §2, §3, §4, §5
# [10] = system: Staphylococcus aureus FDA 209P; type: cell-based; details: FDA209P, agar dilution, DY medium, pH unadjusted, approx. 10^6 CFU/ml, read-out: Minimum Inhibitory Conc. (MIC)
# Protocol: as §1, §2, §3, §4, §5
# [11] = system: Staphylococcus epidermidis IFO 3762; type: cell-based; details: IFO3762, agar dilution, DY medium, pH unadjusted, approx. 10^6 CFU/ml, read-out: Minimum Inhibitory Conc. (MIC)
# Protocol: as §1, §2, §3, §4, §5
# [12] = system: Streptococcus faecalis IFO 3989; type: cell-based; details: Enterococcus faecalis, IFO3989; agar dilution; DY medium, pH unadjusted; approx. 10^6 CFU/ml; read-out: Minimum Inhibitory Conc. (MIC)
# Protocol: as §1, §2, §3, §4, §5
# [13] = Conversion in aqueous solution; type: physicochemical
# Description: For example, in case that the mixture of TAN-1057A and B is isolated as crystals of the sulfate, the ratio of TAN-1057A and B is about 6 to 8:4 to 2.
# The term "Antibiotics TAN-1057" in the present specification includes also a mixture which contains TAN-1057A, B, C and D in an optional combination and an optional ratio thereof.
# Solubility = type: physicochemical
# Acidity or basicity = type: physicochemical
# [14] = system: Staphylococcus aureus C10; assay: Antibacterial activity against clinically isolated S. aureus (agar dilution MIC, Table 2); type: cell-based; details: Staphylococcus aureus, C10
# Protocol: (§6) DMPPC: Methicillin, KM: Kanamycin, GM: Gentamycin, EM: Erythromycin (Note
# (§7) Determined by the agar dilution method. Medium: Mueller Hinton medium
# (§8) (Difco, USA) Inoculum Size: 10^6 CFU/ml, 37° C.
# Staphylococcus aureus C3 = assay: as above; type: cell-based; details: Staphylococcus aureus, C3
# Protocol: as §6, §7, §8
# Staphylococcus aureus C4 = assay: as above; type: cell-based; details: Staphylococcus aureus, C4
# Protocol: as §6, §7, §8
# Staphylococcus aureus C7 = assay: as above; type: cell-based; details: Staphylococcus aureus, C7
# Protocol: as §6, §7, §8
# [15] = system: Staphylococcus aureus FDA 209P; assay: as above; type: cell-based; details: Staphylococcus aureus, FDA209P
# Protocol: as §6, §7, §8
# [16] = system: Staphylococcus aureus N121; assay: as above; type: cell-based; details: Staphylococcus aureus, N121
# Protocol: as §6, §7, §8
# [17] = system: Staphylococcus aureus N129; assay: as above; type: cell-based; details: Staphylococcus aureus, N129
# Protocol: as §6, §7, §8
# [18] = system: Staphylococcus aureus N176-3; assay: as above; type: cell-based; details: Staphylococcus aureus, N1763
# Protocol: as §6, §7, §8
# [19] = system: Staphylococcus aureus N176-6; assay: as above; type: cell-based; details: Staphylococcus aureus, N1766
# Protocol: as §6, §7, §8
# [20] = system: Staphylococcus aureus N176; assay: as above; type: cell-based; details: Staphylococcus aureus, N176
# Protocol: as §6, §7, §8
# [21] = system: Staphylococcus aureus N235; assay: as above; type: cell-based; details: Staphylococcus aureus, N235
# Protocol: as §6, §7, §8
# [22] = system: Staphylococcus aureus N237; assay: as above; type: cell-based; details: Staphylococcus aureus, N237
# Protocol: as §6, §7, §8
# [23] = system: Staphylococcus aureus N247-16; assay: as above; type: cell-based; details: Staphylococcus aureus, N24716
# Protocol: as §6, §7, §8
# [24] = system: Staphylococcus aureus N247-21; assay: as above; type: cell-based; details: Staphylococcus aureus, N24721
# Protocol: as §6, §7, §8
# [25] = system: Staphylococcus aureus N247; assay: as above; type: cell-based; details: Staphylococcus aureus, N247
# Protocol: as §6, §7, §8
# [26] = system: Staphylococcus aureus N262; assay: as above; type: cell-based; details: Staphylococcus aureus, N262
# Protocol: as §6, §7, §8
# [27] = system: Staphylococcus aureus N267; assay: as above; type: cell-based; details: Staphylococcus aureus, N267
# Protocol: as §6, §7, §8
# [28] = system: Staphylococcus aureus N28; assay: as above; type: cell-based; details: Staphylococcus aureus, N28
# Protocol: as §6, §7, §8
# [29] = system: Staphylococcus aureus N326; assay: as above; type: cell-based; details: Staphylococcus aureus, N326
# Protocol: as §6, §7, §8
# [30] = system: Staphylococcus aureus N51; assay: as above; type: cell-based; details: Staphylococcus aureus, N51
# Protocol: as §6, §7, §8
# [31] = system: Staphylococcus aureus N62; assay: as above; type: cell-based; details: Staphylococcus aureus, N62
# Protocol: as §6, §7, §8
# [32] = system: Staphylococcus aureus N64; assay: as above; type: cell-based; details: Staphylococcus aureus, N64
# Protocol: as §6, §7, §8
# [33] = system: Staphylococcus aureus N83; assay: as above; type: cell-based; details: Staphylococcus aureus, N83
# Protocol: as §6, §7, §8
# Staphylococcus aureus N8 = assay: as above; type: cell-based; details: Staphylococcus aureus, N8
# Protocol: as §6, §7, §8
# [34] = system: Staphylococcus aureus N91; assay: as above; type: cell-based; details: Staphylococcus aureus, N91
# Protocol: as §6, §7, §8
# [35] = system: Staphylococcus aureus TS-65; assay: as above; type: cell-based; details: Staphylococcus aureus, TS65
# Protocol: as §6, §7, §8
# [36] = system: Staphylococcus aureus TST-75; assay: as above; type: cell-based; details: Staphylococcus aureus, TST75
# Protocol: as §6, §7, §8
structure (smiles),measurement,setting,value
CN1C(=O)C[C@H](CCCNC(=N)N)NC(=O)[C@H]1CNC(=N)NC(N)=O [TAN-1057C],MIC,[1],> 100 µg/mL
same,MIC,Aeromonas caviae NCW,50 µg/mL
same,MIC,Bacillus cereus FDA 5,> 100 µg/mL
same,MIC,[2],> 100 µg/mL
same,MIC,[3],> 100 µg/mL
same,MIC,Escherichia coli LD-2,50 µg/mL
same,MIC,[4],> 100 µg/mL
same,MIC,[5],> 100 µg/mL
same,MIC,[6],12.5 µg/mL
same,MIC,[7],> 100 µg/mL
same,MIC,[8],> 100 µg/mL
same,MIC,[9],> 100 µg/mL
same,MIC,[10],50 µg/mL
same,MIC,[11],6.25 µg/mL
same,MIC,[12],50 µg/mL
same,conversion of TAN-1057C and D,"[13]; especially aqueous alkaline solution, by HPLC",converted into TAN-1057B
CN(C(=O)C[C@@H](N)CCCNC(=N)N)[C@H]1CNC(NC(N)=O)=NC1=O [TAN-1057A trihydrochloride],Solubility,Solubility; acetone,Sparingly soluble
same,Solubility,Solubility; diethyl ether,Sparingly soluble
same,Solubility,Solubility; dimethylsulfoxide,Soluble
same,Solubility,Solubility; ethyl acetate,Sparingly soluble
same,Solubility,Solubility; methanol,Soluble
same,Solubility,Solubility; water,Readily soluble
same,Acidity or basicity,Acidity or basicity,neutral
CN(C(=O)C[C@@H](N)CCCNC(=N)N)[C@@H]1CNC(NC(N)=O)=NC1=O [TAN-1057B],MIC,[1],100 µg/mL
same,MIC,Aeromonas caviae NCW,25 µg/mL
same,MIC,Bacillus cereus FDA 5,100 µg/mL
same,MIC,[2],50 µg/mL
same,MIC,[3],50 µg/mL
same,MIC,Escherichia coli LD-2,25 µg/mL
same,MIC,[4],> 100 µg/mL
same,MIC,[5],> 100 µg/mL
same,MIC,[6],12.5 µg/mL
same,MIC,[7],> 100 µg/mL
same,MIC,[8],> 100 µg/mL
same,MIC,[9],> 100 µg/mL
same,MIC,[10],25 µg/mL
same,MIC,[11],3.13 µg/mL
same,MIC,[12],50 µg/mL
same,conversion of TAN-1057A and B into each other,[13]; room temperature,converted easily each other
CN1C(=O)C[C@H](CCCNC(=N)N)NC(=O)[C@H]1CNC(=N)NC(N)=O [TAN-1057C dihydrochloride],Solubility,Solubility; acetone,Sparingly soluble
same,Solubility,Solubility; diethyl ether,Sparingly soluble
same,Solubility,Solubility; dimethylsulfoxide,Soluble
same,Solubility,Solubility; ethyl acetate,Sparingly soluble
same,Solubility,Solubility; methanol,Soluble
same,Solubility,Solubility; water,Readily soluble
same,Acidity or basicity,Acidity or basicity,neutral
CN1C(=O)C[C@H](CCCNC(=N)N)NC(=O)[C@@H]1CNC(=N)NC(N)=O [TAN-1057D dihydrochloride],Solubility,Solubility; acetone,Sparingly soluble
same,Solubility,Solubility; diethyl ether,Sparingly soluble
same,Solubility,Solubility; dimethylsulfoxide,Soluble
same,Solubility,Solubility; ethyl acetate,Sparingly soluble
same,Solubility,Solubility; methanol,Soluble
same,Solubility,Solubility; water,Readily soluble
same,Acidity or basicity,Acidity or basicity,neutral
CN(C(=O)C[C@@H](N)CCCNC(=N)N)[C@@H]1CNC(NC(N)=O)=NC1=O [TAN-1057B dihydrochloride],Solubility,Solubility; acetone,Sparingly soluble
same,Solubility,Solubility; diethyl ether,Sparingly soluble
same,Solubility,Solubility; dimethylsulfoxide,Soluble
same,Solubility,Solubility; ethyl acetate,Sparingly soluble
same,Solubility,Solubility; methanol,Soluble
same,Solubility,Solubility; water,Readily soluble
same,Acidity or basicity,Acidity or basicity,neutral
"NC[C@H]1O[C@H](O[C@H]2[C@H](O)[C@@H](O[C@H]3O[C@H](CO)[C@@H](O)[C@H](N)[C@H]3O)[C@H](N)C[C@@H]2N)[C@H](O)[C@@H](O)[C@@H]1O [KM, Kanamycin]",MIC,[14],> 100 µg/mL
same,MIC,Staphylococcus aureus C3,> 100 µg/mL
same,MIC,Staphylococcus aureus C4,> 100 µg/mL
same,MIC,Staphylococcus aureus C7,> 100 µg/mL
same,MIC,[15],0.39 µg/mL
same,MIC,[16],> 100 µg/mL
same,MIC,[17],> 100 µg/mL
same,MIC,[18],1.56 µg/mL
same,MIC,[19],1.56 µg/mL
same,MIC,[20],3.13 µg/mL
same,MIC,[21],100 µg/mL
same,MIC,[22],> 100 µg/mL
same,MIC,[23],> 100 µg/mL
same,MIC,[24],> 100 µg/mL
same,MIC,[25],> 100 µg/mL
same,MIC,[26],> 100 µg/mL
same,MIC,[27],> 100 µg/mL
same,MIC,[28],> 100 µg/mL
same,MIC,[29],> 100 µg/mL
same,MIC,[30],3.13 µg/mL
same,MIC,[31],25 µg/mL
same,MIC,[32],> 100 µg/mL
same,MIC,[33],> 100 µg/mL
same,MIC,Staphylococcus aureus N8,1.56 µg/mL
same,MIC,[34],> 100 µg/mL
same,MIC,[35],> 100 µg/mL
same,MIC,[36],> 100 µg/mL
